The values below come from ChEMBL document CHEMBL1137126, “Aza-boronic acids as non-beta-lactam inhibitors of AmpC-beta-lactamase” (Bioorg Med Chem Lett, 2004).

The structures appear in SMILES notation. pKi: −log10 of the molar value. ≈ marks a conversion by molar mass, not a printed value.

The first experiment has as its system Escherichia coli. Put plainly: Minimum inhibitory concentration of compound against Escherichia coli K12AmpC-Ent.
The MIC is the lowest concentration that inhibits growth of the organism. Lower therefore signals greater potency. `CC(C)(O/N=C(\C(=O)N[C@@H]1C(=O)N2C(C(=O)[O-])=C(C[n+]3ccccc3)CS[C@H]12)c1csc(N)n1)C(=O)O` [CEFTAZIDIME] yielded an MIC of 64 µg/mL (≈ 117 µM).

For another experiment, the system named is Citrobacter freundii. Put plainly: Minimum inhibitory concentration of compound against Citrobacter freundii derepressed 91/98-2. Format: functional.
For `CC(C)(O/N=C(\C(=O)N[C@@H]1C(=O)N2C(C(=O)[O-])=C(C[n+]3ccccc3)CS[C@H]12)c1csc(N)n1)C(=O)O` [CEFTAZIDIME], the lowest concentration to inhibit growth (MIC) was 64 µg/mL (≈ 117 µM).

The next experiment has as its system Enterobacter cloacae. The experiment in a line: Minimum inhibitory concentration of compound against Enterobacter cloacae derepressed 12991 ED. Format: functional.
In the case of `CC(C)(O/N=C(\C(=O)N[C@@H]1C(=O)N2C(C(=O)[O-])=C(C[n+]3ccccc3)CS[C@H]12)c1csc(N)n1)C(=O)O` [CEFTAZIDIME], the MIC is 256 µg/mL (≈ 468 µM).

The subject of a further experiment is Pseudomonas aeruginosa. Put plainly: Minimum inhibitory concentration of compound against Pseudomonas aeruginosa derepressed 88/98. Format: functional.
The compound `CC(C)(O/N=C(\C(=O)N[C@@H]1C(=O)N2C(C(=O)[O-])=C(C[n+]3ccccc3)CS[C@H]12)c1csc(N)n1)C(=O)O` [CEFTAZIDIME] yielded an MIC of 128 µg/mL (≈ 234 µM).

For another experiment, the system named is Escherichia coli. The experiment in a line: Minimum inhibitory concentration of compound against Escherichia coli derepressed.
On to `CC(C)(O/N=C(\C(=O)N[C@@H]1C(=O)N2C(C(=O)[O-])=C(C[n+]3ccccc3)CS[C@H]12)c1csc(N)n1)C(=O)O` [CEFTAZIDIME], for which the MIC turned out to be 128 µg/mL (≈ 234 µM).

In a further experiment the target is Beta-lactamase (Escherichia coli K-12, UniProt P00811). The experiment in a line: Apparent inhibition constant against Escherichia coli AmpC beta-lactamase.
Beta-lactamase, sequence (P00811 whole entry): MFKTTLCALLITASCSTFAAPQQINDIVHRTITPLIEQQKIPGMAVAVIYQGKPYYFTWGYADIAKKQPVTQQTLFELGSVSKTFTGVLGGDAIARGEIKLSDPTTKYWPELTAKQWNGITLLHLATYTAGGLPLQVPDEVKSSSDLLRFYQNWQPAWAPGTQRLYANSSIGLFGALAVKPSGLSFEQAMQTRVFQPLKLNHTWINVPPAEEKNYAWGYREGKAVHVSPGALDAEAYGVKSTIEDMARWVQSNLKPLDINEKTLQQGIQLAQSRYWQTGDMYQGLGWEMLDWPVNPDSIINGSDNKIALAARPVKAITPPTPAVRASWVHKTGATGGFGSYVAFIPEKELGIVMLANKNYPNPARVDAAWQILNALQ
Usually pKi stands for the negative decadic logarithm of the Ki, by convention in mol/L. Take `OB(O)c1cccc(/N=N/c2ccc(O)cc2)c1`: the pKi is 6.15. Same read-out and setting: with `OB(O)c1cccc(/N=N/c2ccc(/N=N/c3c(O)ccc4ccccc34)cc2O)c1` the figure was 5.74; with `OB(O)c1cccc(/N=N/c2c(O)cc(O)c3ccccc23)c1`, 6.35. Still for that read-out and setting: as for `OB(O)c1cccc(/N=N/c2cc(Cl)c(O)c(Cl)c2)c1`, the figure is 5.52; as for `OB(O)c1cccc(/N=N/c2ccccc2O)c1`, 5.46. Still for that read-out and setting: as for `OB(O)c1cccc(/N=N/c2ccc(/N=N/c3c(O)cc(O)c4ccccc34)cc2O)c1`, the figure is 6.15; as for `O=[N+]([O-])c1cccc(/N=N/c2cccc(B(O)O)c2)c1O`, 5.82; as for `OB(O)c1cccc(/N=N/c2c(O)ccc3ccccc23)c1`, 6.52. As to `Nc1cc(B(O)O)ccc1/N=N/c1cccc(B(O)O)c1`, the pKi is 5.57. `O=S(=O)(O)c1cc(S(=O)(=O)c2cccc(/N=N/c3cccc(B(O)O)c3)c2)cs1`: the pKi was 5.70. The same measure, in the same setting: as for `OB(O)c1cccc(/N=N/c2ccc(O)c3ccccc23)c1`, the figure is 6.05; as for `O=S(=O)(O)c1cc(/N=N/c2cccc(B(O)O)c2)c(O)c2ccccc12`, 5.30; as for `Cc1noc(C)c1/N=N/c1cccc(B(O)O)c1`, 6.00.

`OB(O)c1cc(/N=N/c2ccc(Br)cc2)ccc1O`: the pKi is 5.52.
